Source: ChEMBL document CHEMBL2150850, “Recent advances in the development of selective human MAO-B inhibitors: (hetero)arylidene-(4-substituted-thiazol-2-yl)hydrazines” (Eur J Med Chem, 2012)

Experiments:
[1] = target: T1, Amine oxidase [flavin-containing] A (Homo sapiens, UniProt P21397); test: Inhibition of human MAO-A expressed in baculovirus infected BTI-TN-5B1-4 cells using p-tyramine as substrate incubated for 15 mins prior to substrate addition measured for 15 mins by Amplex red assay
T1 sequence (P21397 whole entry): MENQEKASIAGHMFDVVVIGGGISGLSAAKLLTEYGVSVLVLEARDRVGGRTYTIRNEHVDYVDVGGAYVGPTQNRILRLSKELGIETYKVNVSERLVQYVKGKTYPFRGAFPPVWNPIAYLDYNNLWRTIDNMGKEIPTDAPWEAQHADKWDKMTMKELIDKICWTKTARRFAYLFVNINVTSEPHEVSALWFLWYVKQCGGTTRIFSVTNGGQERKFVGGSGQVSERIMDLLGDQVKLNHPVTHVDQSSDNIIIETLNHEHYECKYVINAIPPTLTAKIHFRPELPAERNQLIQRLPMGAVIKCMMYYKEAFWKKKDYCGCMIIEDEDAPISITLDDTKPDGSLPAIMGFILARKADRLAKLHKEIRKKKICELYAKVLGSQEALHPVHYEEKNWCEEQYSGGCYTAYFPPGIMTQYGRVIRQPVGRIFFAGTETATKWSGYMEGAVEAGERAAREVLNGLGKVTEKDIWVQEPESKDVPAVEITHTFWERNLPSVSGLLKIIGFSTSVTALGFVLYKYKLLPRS

[2] = species on record: Homo sapiens; test: Selectivity ratio of IC50 for human MAO-A to IC50 for human MAO-B
[3] = target: T2, Amine oxidase [flavin-containing] B (Homo sapiens, UniProt P27338); test: Inhibition of human MAO-B expressed in baculovirus infected BTI-TN-5B1-4 cells using p-tyramine as substrate at 100 uM incubated for 15 mins prior to substrate addition measured for 15 mins by Amplex red assay; conditions: BTI-TN-5B1-4, human, 0.25 h
T2 sequence (P27338 whole entry): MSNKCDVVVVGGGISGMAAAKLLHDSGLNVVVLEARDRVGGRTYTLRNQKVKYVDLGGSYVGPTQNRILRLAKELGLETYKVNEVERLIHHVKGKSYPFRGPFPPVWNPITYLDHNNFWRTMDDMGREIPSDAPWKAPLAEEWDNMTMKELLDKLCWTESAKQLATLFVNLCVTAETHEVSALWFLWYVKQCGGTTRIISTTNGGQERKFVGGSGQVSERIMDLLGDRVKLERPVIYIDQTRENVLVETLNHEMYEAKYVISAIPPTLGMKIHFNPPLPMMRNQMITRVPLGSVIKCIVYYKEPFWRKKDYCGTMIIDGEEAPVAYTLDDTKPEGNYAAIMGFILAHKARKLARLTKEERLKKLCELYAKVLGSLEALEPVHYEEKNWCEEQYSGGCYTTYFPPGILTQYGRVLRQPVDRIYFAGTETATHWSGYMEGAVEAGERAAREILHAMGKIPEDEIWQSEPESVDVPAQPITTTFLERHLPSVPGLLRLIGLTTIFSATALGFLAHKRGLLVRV

[4] = target: T2, Amine oxidase [flavin-containing] B; test: biochemical; assay type: cell-based, BTI-TN-5B1-4
Description: Inhibition of human MAO-B expressed in baculovirus infected BTI-TN-5B1-4 cells using p-tyramine as substrate incubated for 15 mins prior to substrate addition measured for 15 mins by Amplex red assay

[5] = target: T1, Amine oxidase [flavin-containing] A; test: Inhibition of human MAO-A expressed in baculovirus infected BTI-TN-5B1-4 cells using p-tyramine as substrate at 100 uM incubated for 15 mins prior to substrate addition measured for 15 mins by Amplex red assay
[6] = target: T2, Amine oxidase [flavin-containing] B; test: Reversible inhibition of human MAO-B expressed in baculovirus infected BTI-TN-5B1-4 cells using p-tyramine as substrate at 20 nM incubated for 30 mins prior to substrate addition followed by 100 fold dilution measured for 15 mins by Amplex red assay; conditions: bti-tn-5b1-4, 0.25 h, 0.02 µM
[7] = target: T2, Amine oxidase [flavin-containing] B; test: Reversible inhibition of human MAO-B expressed in baculovirus infected BTI-TN-5B1-4 cells using p-tyramine as substrate at 70 uM incubated for 30 mins prior to substrate addition followed by 100 fold dilution measured for 15 mins by Amplex red assay; conditions: bti-tn-5b1-4, 0.25 h

Structure (SMILES)	IC50 [1]	Ratio IC50 [2]	inhibition at 100 µM [3]	IC50 [4]	inhibition at 100 µM ([5]; BTI-TN-5B1-4, human, 0.25 h)	inhibition (INH) [6]	inhibition (INH) ([5]; human, bti-tn-5b1-4, 0.25 h, 100 µM)	inhibition (INH) [7]
C/C(=N/Nc1nc(-c2ccc(F)cc2F)cs1)c1ccccn1	3.04 µM	< 0.03	40%	–	–	–	–	–
C/C(=N/Nc1nc(-c2ccc(F)cc2)cs1)c1cccnc1	–	> 58800	–	0.0017 µM	40%	Active	–	–
N#Cc1ccc(-c2csc(N/N=C\c3ccncc3)n2)cc1	–	> 15	–	6.75 µM	–	–	Not Active	Active
C/C(=N/Nc1nc(-c2ccc(F)cc2)cs1)c1ccccc1	4.18 µM	12	–	0.351 µM	–	–	–	–
C/C(=N/Nc1nc(-c2ccc(F)cc2)cs1)c1nccs1	7.55 µM	6.2	–	1.21 µM	–	–	–	–
C/C(=N/Nc1nc(-c2ccc(F)cc2F)cs1)c1ccccc1	21.2 µM	235	–	0.0903 µM	–	–	–	–
